Experimental data published in patent US20220409510A1, “Polypeptides And Methods For Improving Skin Conditions” (Interk Peptide Therapeutics Limited, priority 2018, published 2022).

Assays:
[1] = test system: MM1418-C1 lightly pigmented melanoma cells; assay: Melanin content of melanoma cells after UVB radiation; format: cell-based; conditions: 10 μM for 24 hours prior to 2 kJ/m2 UVB; measured 24 hours later; vs untreated UVB cells; FIG. 20
Protocol: The ability of the polypeptide RSKAKNPLYRRRRRRRRR to alter melanin production was examined.
In brief, MM1418-C1 lightly pigmented melanoma cells were grown in 24 well culture plates and treated with 10 μM RSKAKNPLYRRRRRRRRR (“IK-3”) for 24 hours prior to being exposed to 2 kJ/m2 UVB radiation. Controls (not treated with RSKAKNPLYRRRRRRRRR) labelled “Con” and “UVB”, respectively, were exposed to either 0 or 2 kJ/m2 UVB radiation. Cell groups were returned to the incubator for 24 hours and then the levels of melanin and protein in the cells were measured spectrophotometrically. In each experiment triplicate samples were measured. Data shown in FIG. 19 indicate the average values±SEM (μg melanin/mg cell protein) exposed to 0 or 2 kJ/m2 UVB which had been pre-treated with 0 or 10 μM of RSKAKNPLYRRRRRRRRR 24 hours prior to being exposed to UVB radiation. The t-test (2-tailed) was used to determine statistical significance, *p<0.05, ***p<0.001.

[2] = test system: wound (skin punch, ID 12 mm); assay: Murine wound model, percentage closure of the wound; format: in vivo, ICR mice; conditions: topical 10 ug per mouse daily for 10 consecutive days; Day 5 to Day 11; vs negative control (PBS)
From the text: FIGS. 1 and 2 illustrate the effect of polypeptides IK34720 (SEQ ID NO: 3—RSKAKNPLYRRRRRRRRR) (FIG. 1) and the dextro-reverso sequence IK236770 (SEQ ID NO: 4—rrrrrrrrrylpnkaksr) (FIG. 2), on wound healing over 10 days in a murine wound model in accordance with the following protocol.
Three groups of 8 male ICR mice with a mean weight of 22 g (±2 g) were used in the present study. The animals were housed in individual cages during the study. Under isoflurane gas anaesthesia, the shoulder and back region of each animal was shaved and a sharp punch (ID 12 mm) was used to induce a wound by removing the skin, including panniculus carnosus and adherent tissues on Day 1.
Following induction of the wound the polypeptides IK34720 and IK236770 were topically administered to the site of the wound at a dosage of 10 μg per animal. […] An additional group which comprised the administration of Phosphate buffered Saline (PBS) at pH 7.4 was used as a negative control.
The wound healing was analysed on Days 5, 7, 9 and 11 by tracing the periphery of the wound onto clear plastic sheets with the wound area calculated by an Image analyzer ProPlus (Media Cybernetics, Version 4.5.0.29. The percentage closure of the wound (%) was calculated. Percentage closure of the wound was determined on 5, 7, 9 and 11. ANOVA and Dunnett's test were applied to test significant significance between the treated groups (peptide and positive control groups) and the negative control group at each time point of measurement. Differences were considered statistically significant at P<0.05, and are indicated by *.

dermal fibroblasts = assay: TBARS lipid peroxidation assay in UV irradiated dermal fibroblasts; format: cell-based; conditions: highest concentration (5 μM) of peptide; FIG. 19
Protocol: The ability of the polypeptide RSKAKNPLYRRRRRRRRR to alter UV-induced oxidative damage of cell-derived lipids was examined using the TBARS thiobarbituric acid-reactive substances (TBARS) lipid peroxidation assay.
After irradiation or sham-irradiation of dermal fibroblasts, supernatants (900 μL) were collected. In brief, 90 μL of butylated hydroxytoluene (2% w/w in ethanol) was added and samples kept frozen (−20° C.) until the TBARS assay. Petri dishes were washed twice with 1 mL of HBSS, cells scraped in 600 μL of water and 60 μL of 0.5% aqueous Triton X100 added to this solution, for protein determination carried out by the Lowry method (Lowry OH et al, J. Biol. Chem., 1951, 193:265-275). TBARS were fluorometrically assayed as described (Morlière P et al, Biochim. Biophys. Acta, 1991, 1084:261-268). Briefly, thawing samples were heated in the presence of thiobarbituric acid in acidic conditions, and TBARS extracted with 1-butanol and fluorometrically quantified (λexc=515 nm and λem=550 nm). Tetraethoxypropane, which quantitatively yields the malondialdehyde-thiobarbituric acid adduct in the assay conditions, was used for calibration. TBARS values, expressed in malondialdehyde (MDA) equivalents, were normalized to the cell protein for each Petri dish. Each TBARS determination was performed in triplicate (e.g., with three Petri dishes per data point).

[3] = test system: Cyclobutane pyrimidine dimers (CPDs) in primary keratinocytes; assay: CPD detection by IHC in keratinocytes after UV-irradiation in vitro; format: cell-based
Protocol: An in vitro assay was conducted allowing for densitometry analysis of CPD detection by IHC in keratinocytes 3 h following UV-irradiation in accordance with the following protocol.
Keratinocytes were harvested and cultured as described above at Example 2. Samples were split into two groups, being UV irradiated (UVR) and non-UV irradiated (SHAM). UV-irradiation was performed by solar simulated UV-irradiation for cells, also as described above at Example 2. Irradiation solution was PBS containing 5 mM D-glucose. […]
Harvested keratinocytes were plated on poly-D-lysine coated coverslips in 96 well plates and irradiated (or sham treated) as described above in at Example 2 in PBS containing 5 mM D-glucose. Keratinocytes were fixed 3 h after UV-irradiation. Immunohistochemistry and image analysis were performed as described previously (Gordon-Thomson et al., Photochem Photobiol Sci, 2012, 11(12):1837-47; Gupta et al., vide supra, Rybchyn MS et al., J Invest Dermatol, 2018;138(5):1146-1156). Thymine dimers were detected using the anti-thymine dimer antibody (Sigma-Aldrich, Mo., USA) at 10 μg/mL, and quantified as an index of CPD, as previously described (Douki T and Cadet J, Biochemistry,2001, 40(8):2495-501).

[4] = test system: apoptotic cells in human skin explants; assay: Apoptotic sunburn cells in human skin explants after UV-irradiation; format: cell-based; conditions: 500 μM
Protocol: FIGS. 14 and 15 illustrate the effect of the polypeptide IK34720 (SEQ ID NO: 3) on the number of apoptotic cells in human skin explants.
Skin explants were cultured irradiated and treated as described above for CPD, and subsequent to treatment were stained and quantified as described for Example 6.

RSKAKNPLYRRRRRRRRR [IK34720, 18-residue polypeptide: … with a C-terminal polyarginine region of 8 arginines]
melanin content of cells [1]: significantly decreased melanin content | wound closure percentage [2]: statistically significant increase (P<0.05) in wound closure percentage | significant difference in TRS (TBA reactive substances) between Sham and UV irradiation (dermal fibroblasts): not seen | CPD levels vs keratinocytes treated with Calcitriol ([3]; 5 μM, 3 h after UV): comparable reduction in CPD levels | CPD levels vs vehicle-treated UV-irradiated keratinocytes ([3]; 5 μM, 3 h after UV): statistically significant (*p<0.05) reduction in CPD levels | CPD formation (average intensity of CPD staining) vs positive control ([3]; 10 uM, FIG. 8B): more effective at inhibiting CPD formation than the positive control 1,25 D | CPD levels ([3]; 0.5, 1, 2.5 or 5 μM after ssUV, keratinocytes fixed 3 h after UV, FIGS. 7 and 8): decreases CPD levels in primary keratinocytes exposed to solar simulated UV-irradiation in a dose dependent manner | number of apoptotic cells ([4]; 3 hrs post UV-irradiation, FIG. 14): statistically significantly reduces the number of apoptotic cells | number of apoptotic cells ([4]; 24 hrs post UV-irradiation, FIG. 15): statistically significantly reduces the number of apoptotic cells
